Experimental data taken from patent publication US8846670B2, “1,2,3,4-tetrahydro-pyrimido(1,2-a)pyrimidin-6-one derivatives, preparation thereof, and pharmaceutical use thereof” (priority 2009, dated 2014).

How the values were obtained:
Format in all cases: cell-based
[1] = system: P. falciparum (highly chloroquine-resistant strain Fcm29-Cameroon); experiment: Antimalarial activity test (radioactive micromethod of Desjardins); conditions: Plasmodium falciparum, Erythrocyte, infected human erythrocytes, 48 h, tritiated hypoxanthine incorporation
Description: Antimalarial Activity Test
The P. falciparum strains are cultured in solutions of RPM! […] For each assay, the parasites are incubated with selected concentrations of drugs for 48 h at 37° C. in a humid atmosphere and at 5% CO2. Artemisinin, artesunate and also chloroquine diphosphate are used as reference molecules. The first dilution of the drug is prepared at 1 mg/ml in dimethyl sulphoxide. The range of successive daughter solution dilutions is also prepared in dimethyl sulphoxide. […] These dilutions are then added to the parasites in culture in the microplates. […] The growth of the parasites is measured by incorporation of tritiated hypoxanthine (added 24 h after the beginning of the exposure to the drug) compared with the incorporation in the absence of drug.

[2] = system: translocation of the LC3 protein in Hela GFP-LC3 cells; experiment: Study of the translocation of the LC3 protein in Hela human cells, measured by image analysis cytometry (Test C, autophagy); conditions: Homo sapiens, HeLa, 2 h, Hela GFP-LC3 cells with LC3 granulations, EBSS + 10 μM hydroxychloroquine, absolute IC50
Description: The inhibitory activity of the molecules on autophagy is measured by the translocation of the LC3 protein from the cytoplasm to the autophagosomes. For this, Hela cells were transfected with a vector encoding the chimeric protein GFP-LC3. A Hela clone stably expressing the GFP-LC3 protein was selected.
Study of the Translocation of the LC3 Protein in Hela Human Cells, Measured by Image Analysis Cytometry (Test C):
On day 2, the cells are washed twice with EBSS (Sigma #E3024). The cells are then incubated in EBSS, 10 μM of hydroxychloroquine and test products for 2 h at 37° C. in the presence of 5% CO2. The molecules are diluted in dimethyl sulphoxide (DMSO Sigma #D2650), the final DMSO percentage being 0.1%.
After this incubation, the cells are fixed with 4% paraformaldehyde (Sigma #HT501128 4 L) for 10 min. […] The 96-well plates are then read with the iCyte image analysis cytometer (Compucyte).
Two independent experiments make it possible to calculate the mean of the IC50 values.

[3] = system: AKT protein phosphorylated on serine 473 (P-AKT-S473) in PC3 human prostate carcinoma line; experiment: Study of pAKT expression in PC3 human prostate carcinoma cells measured by the MSD Multi-spot Biomarker Detection technique (Test B); conditions: Homo sapiens, PC-3, P-AKT-S473 in PC3 cells, MSD sandwich immunoassay, 1 to 2 h incubation; absolute IC50, mean of 2 experiments
Description: The inhibitory activity of the molecules on AKT phosphorylation is measured either by western blotting using the technique described below, or by the MSD Multi-spot Biomarker detection technique from Meso Scale Discovery also described below.
Study of pAKT Expression in PC3Human Prostate Carcinoma Cells Measured by the MSD Multi-Spot Biomarker Detection Technique from Meso Scale Discovery (Test B):
The primary antibody specific for P-AKT-S473 (Kit #K151CAD) is coated onto an electrode in each well of the 96-well plates of the MSD kit: after the addition of a protein lysate to each well, the signal is visualised by adding a secondary detection antibody labelled with an electrochemiluminescent compound. The procedure followed is that described in the kit.
On day 2, the cells are incubated in the presence or absence of the test products for 1 to 2 h at 37° C. in the presence of 5% of CO2. The molecules, diluted in dimethyl sulphoxide (DMSO Sigma #D2650), are added from a 20-times concentrated stock solution, the final percentage of DMSO being 0.1%.
After this incubation, the cells are lysed for the preparation of the proteins. […] At this stage, the plates containing the lysates can be frozen at −20° C. or at −80° C.
The wells of the 96-well plates of the MSD kit are saturated for 1 h at ambient temperature with the blocking solution of the MSD kit. Four washes are carried out with 150 μl of Tris Wash Buffer of the MSD kit. The lysates previously prepared are transferred into the 96-well multi-spot plates of the MSD kit and incubated for 1 h at ambient temperature, with shaking. Four washes are carried out with 150 μl of Tris Wash Buffer of the MSD kit. 25 μl of the MSD sulfo-tag detection antibody solution are added to the wells and incubated for 1 h at ambient temperature, with shaking. Four washes are carried out with 150 μl of Tris Wash Buffer of the MSD kit. 150 μl of Read Buffer of the MSD kit are added to the wells and the plates are read immediately on the S12400 instrument from Meso Scale Discovery.
The instrument measures a signal for each well. Wells without cells and containing the lysis buffer serve to determine the background noise that will be subtracted from all the measurements (min). The wells containing cells in the absence of product and in the presence of 0.1% DMSO are considered to be the 100% signal (max). The percentage inhibition is calculated for each concentration of test product according to the following formula: (1−((test−min)/(max−min)))×100.
2 independent experiments make it possible to calculate the mean of the IC50 values.

Row | IC50 [2] | IC50 [3] | SMILES | inhibition at 0.1 µM [1] | inhibition at 1 µM [1]
1 |  |  | COc1ccc([C@H](O)CN2c3nc(N4CCOCC4)cc(=O)n3CC[C@H]2C(F)(F)F)c(Cl)c1 [Example 54, 9-[(S)-2-(2-Chloro-4-methoxyphenyl)-2-hydroxyethyl]-2-morpholin-4-yl-8-(S)-trifluoromethyl-6,7,8,9-tetrahydro-pyrimido[1,2-a]pyrimidin-4-one] | 83% | 99%
2 |  |  | O=c1cc(N2CCOCC2)nc2n1CC[C@@H](C(F)(F)F)N2CC(O)Cc1ccccc1 (stereo partly drawn) [Example 55, 9-(2-Hydroxy-3-phenylpropyl)-2-morpholin-4-yl-8-(S)-trifluoromethyl-6,7,8,9-tetrahydropyrimido[1,2-a]pyrimidin-4-one] | 81% | 93%
3 | 103 nM | 9 nM | COc1ccccc1CCN1c2nc(N3CCOCC3)cc(=O)n2CC[C@H]1C(F)(F)F [Example 24, (8S)-9-[2-(2-methoxyphenyl)ethyl]-2-(morpholin-4-yl)-8-(trifluoromethyl)-6,7,8,9-tetrahydro-4H-pyrimido[1,2-a]pyrimidin-4-one] | 40% | 100%
4 |  |  | COc1cc(Cl)ccc1[C@H](O)CN1c2nc(N3CCOCC3)cc(=O)n2CC[C@H]1C(F)(F)F [Example 53, 9-[(S)-2-(4-Chloro-2-methoxyphenyl)-2-hydroxyethyl]-2-morpholin-4-yl-8-(S)-trifluoromethyl-6,7,8,9-tetrahydro-pyrimido[1,2-a]pyrimidin-4-one] | 75% | 99%
5 |  |  | CN(C)CC(=O)Nc1cccc([C@H](O)CN2c3nc(N4CCOCC4)cc(=O)n3CC[C@H]2C(F)(F)F)c1 [Example 50, 2-Dimethylamino-N-{3-[(S)-1-hydroxy-2-((S)-8-morpholin-4-yl-6-oxo-2-trifluoromethyl-3,4-dihydro-2H,6H-pyrimido[1,2-a]pyrimidin-1-yl)ethyl]phenyl}acetamide] | 79% | 99%
6 | 632 nM | 25 nM | O=c1cc(N2CCOCC2)nc2n1CC[C@@H](C(F)(F)F)N2c1ccc(F)cc1 [Example 13, (8S)-9-(4-fluorophenyl)-2-(morpholin-4-yl)-8-(trifluoromethyl)-6,7,8,9-tetrahydro-4H-pyrimido[1,2-a]pyrimidin-4-one] |  | 52%
7 | 363 nM | 10 nM | COc1ccc(N2c3nc(N4CCOCC4)cc(=O)n3CC[C@H]2C(F)(F)F)cc1 [Example 27, (8S)-9-(4-methoxyphenyl)-2-(morpholin-4-yl)-8-(trifluoromethyl)-6,7,8,9-tetrahydro-4H-pyrimido[1,2-a]pyrimidin-4-one] |  | 36%
8 |  |  | COc1ccccc1[C@H](O)CN1c2nc(N3CCOCC3)cc(=O)n2CC[C@H]1C(F)(F)F [Example 51, 9-[(S)-2-Hydroxy-2-(2-methoxyphenyl)ethyl]-2-morpholin-4-yl-8-(S)-trifluoromethyl-6,7,8,9-tetrahydropyrimido[1,2-a]pyrimidin-4-one] | 75% | 99%
9 |  |  | O=c1cc(N2CCOCC2)nc2n1CC[C@@H](C(F)(F)F)N2CCc1ccc(O)cc1 [Example 56, 9-[2-(4-Hydroxyphenyl)ethyl]-2-morpholin-4-yl-8-(S)-trifluoromethyl-6,7,8,9-tetrahydropyrimido[1,2-a]pyrimidin-4-one] | 94% | 99%
10 |  |  | COc1cc(F)ccc1[C@H](O)CN1c2nc(N3CCOCC3)cc(=O)n2CC[C@H]1C(F)(F)F [Example 52, 9-[(S)-2-(4-Fluoro-2-methoxyphenyl)-2-hydroxyethyl]-2-morpholin-4-yl-8-(S)-trifluoromethyl-6,7,8,9-tetrahydro-pyrimido[1,2-a]pyrimidin-4-one] | 75% | 99%
11 | > 1000 nM | 14 nM | O=C(Cc1ccccc1)N1c2nc(N3CCOCC3)cc(=O)n2CC[C@H]1C(F)(F)F [Example 45, (8S)-2-(morpholin-4-yl)-9-(phenylacetyl)-8-(trifluoromethyl)-6,7,8,9-tetrahydro-4 H-pyrimido[1,2-a]pyrimidin-4-one] |  | 
12 |  |  | O=c1cc(N2CCOCC2)nc2n1CC[C@@H](C(F)(F)F)N2C[C@@H](O)c1cc2ccccc2s1 [Example 48, 9-((R)-2-Benzo[b]thiophen-2-yl-2-hydroxyethyl)-2-morpholin-4-yl-8-(S)-trifluoromethyl-6,7,8,9-tetrahydro-pyrimido[1,2-a]pyrimidin-4-one] | 89% | 96%
13 | > 1000 nM | 22 nM | O=c1cc(N2CCOCC2)nc2n1CC[C@@H](C(F)(F)F)N2Cc1cc(F)cc(F)c1 [Example 29, (8S)-9-(3,5-difluorobenzyl)-2-(morpholin-4-yl)-8-(trifluoro-methyl)-6,7,8,9-tetrahydro-4H-pyrimido[1,2-a]pyrimidin-4-one] |  | 
14 |  |  | O=c1cc(N2CCOCC2)nc2n1CC[C@@H](C(F)(F)F)N2C[C@@H](O)c1cccc(O)c1 [Example 49, 9-[(S)-2-Hydroxy-2-(3-hydroxyphenyl)ethyl]-2-morpholin-4-yl-8-(S)-trifluoromethyl-6,7,8,9-tetrahydropyrimido[1,2-a]pyrimidin-4-one] | 81% | 99%
15 | 82 nM | 3 nM | O=c1cc(N2CCOCC2)nc2n1CC[C@@H](C(F)(F)F)N2CCc1cccc(F)c1 [Example 40, (8S)-9-[2-(3-fluorophenyl)ethyl]-2-(morpholin-4-yl)-8-(trifluoromethyl)-6,7,8,9-tetrahydro-4 H-pyrimido[1,2-a]pyrimidin-4-one] |  | 
16 | 5 nM | 1 nM | COc1ccc([C@H](O)CN2c3nc(N4CCOCC4)cc(=O)n3CC[C@H]2C(F)(F)F)cc1 [Example 7, (8S)-9-[(2S)-2-hydroxy-2-(4-methoxyphenyl)ethyl]-2-(morpholin-4-yl)-8-(trifluoromethyl)-6,7,8,9-tetrahydro-4H-pyrimido[1,2-a]pyrimidin-4-one] |  | 
17 | > 1000 nM | 108 nM | O=C(c1ccc(F)cc1F)N1c2nc(N3CCOCC3)cc(=O)n2CC[C@H]1C(F)(F)F [Example 44, (8S)-9-[(2,4-difluorophenyl)carbonyl]-2-(morpholin-4-yl)-8-(trifluoromethyl)-6,7,8,9-tetrahydro-4 H-pyrimido[1,2-a]pyrimidin-4-one] |  | 
